Experimental data reported in the NIST ThermoML archive (doi:10.1016/j.fluid.2014.09.014).

Assays:
[1] = 298.15 K; 101.33 kPa; Liquid; mechanical oscillator
[2] = refractive index (Na D-line) (dimensionless); details: 298.15 K; 101.33 kPa; Liquid; Standard Abbe refractometry
[3] = xn = mol fraction of the nth substance listed; details: 101 kPa, Liquid, mechanical oscillator
[4] = refractive index (other wavelength) (dimensionless); xn = mol fraction of the nth substance listed; details: 101 kPa, Liquid, Standard Abbe refractometry
[5] = Boiling temperature at pressure P; details: Liquid, Ebulliometric method (Recirculating still)

CC(C)OC(C)C [diisopropyl ether]
Details | mass density [kg/m3] | refractive index
[1] | 718.3 | –
[2] | – | 1.3653

CC(C)O [propan-2-ol] + CC(C)OC(C)C
[3], x2 = 0
Details | mass density [kg/m3]
293.15 K | 786.91
298.15 K | 782.45
303.15 K | 777.84
308.15 K | 773.13
313.15 K | 768.47
318.15 K | 763.79

refractive index, [4], x2 = 0
Details | Wavelength=404.7 nm | Wavelength=435.8 nm | Wavelength=486.1 nm | Wavelength=546.1 nm | Wavelength=587.6 nm | Wavelength=589.3 nm | Wavelength=632.8 nm | Wavelength=644 nm | Wavelength=706.5 nm
293.5 K | 1.3883 | 1.38525 | 1.38179 | 1.37892 | 1.37742 | 1.37736 | 1.37605 | 1.37574 | 1.37424
298.15 K | 1.3861 | 1.38307 | 1.37963 | 1.37678 | 1.37527 | 1.37522 | 1.37392 | 1.37361 | 1.37214
303.15 K | 1.38379 | 1.38078 | 1.37738 | 1.37453 | 1.37304 | 1.37299 | 1.3717 | 1.3714 | 1.36993
308.15 K | 1.38152 | 1.37851 | 1.37512 | 1.3723 | 1.3708 | 1.37075 | 1.36946 | 1.36917 | 1.36772
313.15 K | 1.37921 | 1.37624 | 1.37288 | 1.37005 | 1.36857 | 1.36852 | 1.36726 | 1.36696 | 1.36551
318.15 K | 1.37691 | 1.37397 | 1.37061 | 1.36782 | 1.36635 | 1.36629 | 1.36502 | 1.36473 | 1.36329

CO [methanol] + CC(C)OC(C)C
[3], x1 = 1
Details | mass density [kg/m3]
293.15 K | 791.62
298.15 K | 786.62
303.15 K | 781.54
308.15 K | 776.5
313.15 K | 771.53
318.15 K | 766.6

refractive index, [4], x1 = 1
Details | Wavelength=40.47 nm | Wavelength=435.8 nm | Wavelength=486.1 nm | Wavelength=546.1 nm | Wavelength=587.6 nm | Wavelength=589.3 nm | Wavelength=632.8 nm | Wavelength=644 nm | Wavelength=706.5 nm
293.15 K | 1.33767 | 1.3353 | 1.3324 | 1.32991 | 1.32869 | 1.32864 | 1.32754 | 1.3273 | 1.3261
298.15 K | 1.33564 | 1.3333 | 1.3304 | 1.328 | 1.32671 | 1.32666 | 1.32558 | 1.32535 | 1.32415
303.15 K | 1.33357 | 1.33126 | 1.32839 | 1.32597 | 1.32471 | 1.32467 | 1.3236 | 1.32336 | 1.32219
308.15 K | 1.33153 | 1.32926 | 1.32637 | 1.32397 | 1.32274 | 1.32269 | 1.32163 | 1.32138 | 1.32021
313.15 K | 1.32947 | 1.32722 | 1.32434 | 1.32196 | 1.32073 | 1.32068 | 1.31965 | 1.31942 | 1.31825
318.15 K | 1.32742 | 1.32518 | 1.32234 | 1.31993 | 1.31874 | 1.3187 | 1.31768 | 1.31744 | 1.31631

CO [methanol]
Details | mass density [kg/m3] | refractive index
[1] | 786.62 | –
[2] | – | 1.32666

[5]
Details | Boiling temperature at pressure P [°C]
26.55 kPa | 33.76
29.52 kPa | 36.0
32.46 kPa | 37.94
35.65 kPa | 39.93
37.8 kPa | 41.19
40.63 kPa | 42.76
43.23 kPa | 44.12
44.63 kPa | 44.83
48.35 kPa | 46.62
51.4 kPa | 48.00
53.97 kPa | 49.11
56.89 kPa | 50.32
59.55 kPa | 51.38
62.25 kPa | 52.41
64.9 kPa | 53.39
67.5 kPa | 54.32
70.07 kPa | 55.21
72.95 kPa | 56.17
75.66 kPa | 57.1
78.35 kPa | 57.90
81.05 kPa | 58.72
83.76 kPa | 59.52
86.46 kPa | 60.30
96.35 kPa | 63.00

CC(C)O [propan-2-ol]
Details | mass density [kg/m3] | refractive index
[1] | 782.45 | –
[2] | – | 1.37522

[5]
Details | Boiling temperature at pressure P [°C]
14.02 kPa | 39.48
16.09 kPa | 42.07
18.94 kPa | 45.20
21.65 kPa | 47.82
24.56 kPa | 50.31
26.99 kPa | 52.21
29.69 kPa | 54.2
32.53 kPa | 56.04
36.08 kPa | 58.20
38.28 kPa | 59.5
40.49 kPa | 60.7
43.63 kPa | 62.27
45.88 kPa | 63.37
48.77 kPa | 64.71
51.47 kPa | 65.91
54.24 kPa | 67.08
56.82 kPa | 68.12
59.59 kPa | 69.20
62.14 kPa | 70.2
65.69 kPa | 71.43
67.6 kPa | 72.09
70.27 kPa | 72.98
73.16 kPa | 73.93
75.65 kPa | 74.72
78.35 kPa | 75.6
81.05 kPa | 76.36
83.8 kPa | 77.16
86.4 kPa | 77.90
96.28 kPa | 80.54
